Source: patent publication US10167262B2, “Herbicidal substituted 3-arylpyrazoles” (FMC CORPORATION, priority 2014, dated 2019)
Read-outs that look alike come from different tables or passages of the source.

Key:
Test in all cases: Test C pre-/postemergence greenhouse test, plant response rating 0-100
Format in all cases: in vivo
[1] = system: corn (Zea mays); conditions: Zea mays; for Corn plant response rating (crop injury, 0 = no effect, 100 = complete kill) at 250 g/ha: 250 g ai/ha
Outline: (§1)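 Scores run from 0, no effect, to 100, complete control, assigned by eye after treated plants and controls spent 13 to 15 days in a greenhouse. Soil-applied treatment went onto freshly sown seed in loam and sand; foliar treatment hit seedlings at the 1- to 4-leaf stage.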

[2] = system: yellow nutsedge (Cyperus esculentus); conditions: Cyperus; for pest or weed control at 62 g/ha: 62 g ai/ha; for pest or weed control at 125 g/ha: 125 g ai/ha; for pest or weed control at 250 g/ha: 250 g ai/ha
Outline: as §1

[3] = system: lambsquarters (Chenopodium album); conditions: Chenopodium album; for pest or weed control at 62 g/ha: 62 g ai/ha; for pest or weed control at 125 g/ha: 125 g ai/ha; for pest or weed control at 250 g/ha: 250 g ai/ha
Outline: as §1

[4] = system: ragweed (common ragweed, Ambrosia elatior); conditions: Ambrosia artemisiifolia; for pest or weed control at 62 g/ha: 62 g ai/ha; for pest or weed control at 125 g/ha: 125 g ai/ha; for pest or weed control at 250 g/ha: 250 g ai/ha
Outline: as §1

[5] = system: soybean (Glycine max); conditions: Glycine max; for plant injury at 62 g/ha: 62 g ai/ha; for plant injury at 125 g/ha: 125 g ai/ha; for plant injury at 250 g/ha: 250 g ai/ha
Outline: as §1

[6] = system: johnsongrass (Sorghum halepense); conditions: Sorghum halepense; for pest or weed control at 62 g/ha: 62 g ai/ha; for pest or weed control at 125 g/ha: 125 g ai/ha; for pest or weed control at 250 g/ha: 250 g ai/ha
Outline: as §1

[7] = system: blackgrass (Alopecurus myosuroides); conditions: Alopecurus myosuroides, post-emergence, Postemergence, read-out: Plant response rating (0 to 100), Blackgrass
Outline: as §1

[8] = post-emergence, Postemergence, scale 0 to 100
[9] = pre-emergence, Preemergence, 500 g ai/ha
[10] = post-emergence, Postemergence, read-out: Plant response rating (0 to 100), Nutsedge, Yellow
[11] = pre-emergence, Preemergence, read-out: Plant response rating, Nutsedge, Yellow
[12] = post-emergence, Postemergence, read-out: Plant response rating (0 to 100), Lambsquarters
[13] = pre-emergence, Preemergence, read-out: Plant response rating, Lambsquarters
[14] = post-emergence, Postemergence, read-out: Plant response rating (0 to 100), Ragweed
[15] = pre-emergence, Preemergence, read-out: Plant response rating, Ragweed
[16] = post-emergence, Postemergence, read-out: Plant response rating (0 to 100), Soybean
[17] = pre-emergence, Preemergence, read-out: Plant response rating, Soybean
[18] = post-emergence, Postemergence, read-out: Plant response rating (0 to 100), Johnsongrass
[19] = pre-emergence, Preemergence, read-out: Plant response rating, Johnsongrass

Cn1cc(C(=O)c2ccccc2)c(-c2cc(Cl)cc(Cl)c2)n1 [Compound 54, [3-(3,5-dichlorophenyl)-1-methyl-1H-pyrazol-4-yl]phenylmethanone]
plant injury at 31 g/ha ([1]; post-emergence, Postemergence, 31 g ai/ha): 0%
plant injury at 62 g/ha ([1]; post-emergence, Postemergence, 62 g ai/ha): 0%
plant injury at 125 g/ha ([1]; post-emergence, Postemergence, 125 g ai/ha): 0%
Corn plant response rating (crop injury, 0 = no effect, 100 = complete kill) at 250 g/ha [1, 8]: 0%
Corn plant response rating (crop injury, 0 = no effect, 100 = complete kill) at 62 g/ha ([1]; pre-emergence, Preemergence, 62 g ai/ha): 0%
Corn plant response rating (crop injury, 0 = no effect, 100 = complete kill) at 125 g/ha ([1]; pre-emergence, Preemergence, 125 g ai/ha): 0%
Corn plant response rating (crop injury, 0 = no effect, 100 = complete kill) at 250 g/ha ([1]; pre-emergence, Preemergence): 10%
Corn plant response rating (crop injury, 0 = no effect, 100 = complete kill) at 500 g/ha [1, 9]: 10%
pest or weed control at 62 g/ha [2, 10]: 0%
pest or weed control at 125 g/ha [2, 10]: 0%
pest or weed control at 250 g/ha [2, 8]: 0%
pest or weed control at 62 g/ha [2, 11]: 0%
pest or weed control at 125 g/ha [2, 11]: 0%
pest or weed control at 250 g/ha ([2]; pre-emergence, Preemergence): 0%
pest or weed control at 500 g/ha [2, 9]: 25%
pest or weed control at 62 g/ha [3, 12]: 50%
pest or weed control at 125 g/ha [3, 12]: 55%
pest or weed control at 250 g/ha [3, 8]: 55%
pest or weed control at 62 g/ha [3, 13]: 30%
pest or weed control at 125 g/ha [3, 13]: 40%
pest or weed control at 250 g/ha ([3]; pre-emergence, Preemergence): 50%
pest or weed control at 500 g/ha [3, 9]: 100%
pest or weed control at 62 g/ha [4, 14]: 0%
pest or weed control at 125 g/ha [4, 14]: 0%
pest or weed control at 250 g/ha [4, 8]: 20%
pest or weed control at 62 g/ha [4, 15]: 5%
pest or weed control at 125 g/ha [4, 15]: 15%
pest or weed control at 250 g/ha ([4]; pre-emergence, Preemergence): 15%
pest or weed control at 500 g/ha [4, 9]: 40%
plant injury at 62 g/ha [5, 16]: 0%
plant injury at 125 g/ha [5, 16]: 0%
plant injury at 250 g/ha [5, 8]: 0%
plant injury at 62 g/ha [5, 17]: 0%
plant injury at 125 g/ha [5, 17]: 0%
plant injury at 250 g/ha ([5]; pre-emergence, Preemergence): 0%
plant injury at 500 g/ha [5, 9]: 0%
pest or weed control at 62 g/ha [6, 18]: 0%
pest or weed control at 125 g/ha [6, 18]: 0%
pest or weed control at 250 g/ha [6, 8]: 0%
pest or weed control at 62 g/ha [6, 19]: 0%
pest or weed control at 125 g/ha [6, 19]: 0%
pest or weed control at 250 g/ha ([6]; pre-emergence, Preemergence): 0%
pest or weed control at 500 g/ha [6, 9]: 0%
pest or weed control at 31 g/ha ([7]; 31 g ai/ha): 0%
pest or weed control at 62 g/ha ([7]; 62 g ai/ha): 0%
pest or weed control at 125 g/ha ([7]; 125 g ai/ha): 0%
